Consider one molecule from ChEMBL document CHEMBL3272131, “Molecular connectivity. 6. Examination of the parabolic relationship between molecular connectivity and biological activity” (J Med Chem, 1976).

SMILES strings stand for the structures.

For experiment [1], the species on record is Rattus norvegicus. In words: Induction of hypnotic activity in rat. It is filed as functional.
For experiment [2], the species on record is Oryctolagus cuniculus. Briefly: Induction of hypnotic activity in rabbit. It is filed as functional.

Take `CCC1(C(C)C)C(=O)NC(=O)NC1=O` [PROBARBITAL]: the “-log(1/MED)” value was determined as 3.34 in experiment [1] and 3.3 in experiment [2].
